Patent publication US7338950B2, “Amide compounds as ion channel ligands and uses thereof” (Renovis, Inc., priority 2003, dated 2008)

These compounds were tested against T1, VR1 receptor (capsaicin induced current in dorsal root ganglion (DRG) neurons) (Rattus norvegicus, UniProt O35433) (assay: Whole-cell patch clamp electrophysiology, capsaicin induced current in DRG neurons). Conditions: 20 nM, 40 nM, 100 nM and 200 nM.
T1 construct: Dorsal root ganglion (DRG) neurons were recovered from either neonatal or adult rats; endogenous in cells; host or cells: primary rat dorsal root ganglion neurons
T1 sequence (O35433 whole entry): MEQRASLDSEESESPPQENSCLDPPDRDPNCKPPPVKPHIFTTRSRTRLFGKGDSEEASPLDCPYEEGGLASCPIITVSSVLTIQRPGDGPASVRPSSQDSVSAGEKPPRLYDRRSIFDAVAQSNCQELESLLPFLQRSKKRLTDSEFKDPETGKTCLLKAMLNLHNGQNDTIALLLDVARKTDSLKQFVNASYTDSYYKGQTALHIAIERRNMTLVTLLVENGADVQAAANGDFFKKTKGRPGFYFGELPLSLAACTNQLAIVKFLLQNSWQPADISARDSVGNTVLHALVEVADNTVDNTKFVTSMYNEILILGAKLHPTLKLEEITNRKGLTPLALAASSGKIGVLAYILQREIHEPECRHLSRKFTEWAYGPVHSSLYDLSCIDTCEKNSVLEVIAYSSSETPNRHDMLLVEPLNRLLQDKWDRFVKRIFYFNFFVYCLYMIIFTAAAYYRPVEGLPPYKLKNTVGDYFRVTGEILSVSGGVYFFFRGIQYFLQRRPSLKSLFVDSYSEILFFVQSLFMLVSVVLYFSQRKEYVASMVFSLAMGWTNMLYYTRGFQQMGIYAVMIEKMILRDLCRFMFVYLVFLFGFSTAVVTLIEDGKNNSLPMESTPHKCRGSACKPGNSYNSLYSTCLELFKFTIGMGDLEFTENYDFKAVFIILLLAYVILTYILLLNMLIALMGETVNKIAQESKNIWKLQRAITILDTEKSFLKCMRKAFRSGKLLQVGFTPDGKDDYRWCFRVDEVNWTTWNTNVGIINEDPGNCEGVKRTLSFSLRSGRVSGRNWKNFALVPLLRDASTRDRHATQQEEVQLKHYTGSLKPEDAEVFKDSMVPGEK
Format: cell-based
Description: Dorsal root ganglion (DRG) neurons were recovered from either neonatal or adult rats and plated onto poly-D-lysine coated glass coverslips. The plated neurons were transferred into a chamber to allow drug solutions to be added to the cells using a computer-controlled solenoid-valve based perfusion system. The cells were imaged using standard DIC optics. Cells were patched using finely-pulled glass electrodes. Voltage-clamp electrophysiology experiments were carried out using an Axon Instruments Multiclamp amplified controlled by pCLAMP8 software.
The cells were placed into a whole-cell voltage clamp and help at a voltage of −80 mV while monitoring the membrane current in gap-free recording mode. 500 nM capsaicin was added for 30 seconds as a control. Test compounds at various concentrations at ranging from (10-1000 nM) were added to the cells for 1 minute prior to a 30 second capsaicin application. Differences between control experiments and drug positive capsaicin experiments were used to determine the efficacy of each test compound. All compounds that inhibited capsaicin induced current greater than 50% were considered positives.
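Throughout, for % Inhibition @ 1 uM: Fura2 ratiometric fluorescence read every 4 s over 3 min, response taken as peak ratio minus baseline before pre-treatment, compound pre-treatment preceding acid challenge.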

dose response of inhibiting a capsaicin induced calcium ion influx (FIG. 4)	SMILES
increasing effectiveness	O=C(NCc1ccc(Cl)c(Cl)c1)c1ccc(-c2ncccc2Cl)cc1 [Compound 24]

Same assay, conditions: DRG neuron; 200 nM, treatment time 25 seconds; 500 nM capsaicin, rat DRG neurons

inhibition at 0.2 µM [%]	SMILES
100	O=C(NCc1ccc(Cl)c(Cl)c1)c1ccc(-c2ncccc2Cl)cc1 [Compound 24]

These compounds were tested on VR1 receptor (293 cells expressing capsaicin-insensitive VR1 receptor variants) (assay: High throughput screening of VR1 antagonists using a calcium imaging assay (Fura2, pH 5.1 stimulus)). Conditions: 1 uM compound; inhibition of calcium ion influx.

SMILES	% Inhibition @ 1 uM
CN1CCCc2ccc(NC(=O)c3ccc(-c4ncccc4Cl)cc3)cc21 [Compound 1304]	+ (compound exhibited 0-25% inhibition of calcium ion influx induced by capsaicin stimulation)
O=C(Nc1ccccc1)c1ccc(-c2ncccc2Cl)cn1 [Compound 1306]	++++ (compound exhibited 75% or greater inhibition of calcium ion influx induced by capsaicin stimulation)
O=C(Nc1ccc(F)cc1)c1ccc(-c2ncccc2Cl)cn1 [Compound 1308]	+ (compound exhibited 0-25% inhibition of calcium ion influx induced by capsaicin stimulation)
N#Cc1ccccc1NC(=O)c1ccc(-c2ncccc2Cl)cn1 [Compound 1309]	+ (compound exhibited 0-25% inhibition of calcium ion influx induced by capsaicin stimulation)
O=C(Nc1ccccc1Cl)c1ccc(-c2ncccc2Cl)cn1 [Compound 1314]	++++ (compound exhibited 75% or greater inhibition of calcium ion influx induced by capsaicin stimulation)
N#Cc1cccc(NC(=O)c2ccc(-c3ncccc3Cl)cn2)c1 [Compound 1316]	++++ (compound exhibited 75% or greater inhibition of calcium ion influx induced by capsaicin stimulation)
CCCCc1ccc(NC(=O)c2ccc(-c3ncccc3Cl)cn2)cc1 [Compound 1319]	+++ (compound exhibited 50-75% inhibition of calcium ion influx induced by capsaicin stimulation)
O=C(Nc1ccc(C2CCCCC2)cc1)c1ccc(-c2ncccc2Cl)cn1 [Compound 1320]	++++ (compound exhibited 75% or greater inhibition of calcium ion influx induced by capsaicin stimulation)
O=C(Nc1ccc(C(F)(F)F)cc1)c1ccc(-c2ncccc2Cl)cn1 [Compound 1325]	+ (compound exhibited 0-25% inhibition of calcium ion influx induced by capsaicin stimulation)
COc1cc(NC(=O)c2ccc(-c3ncccc3Cl)cn2)cc(C(F)(F)F)c1 [Compound 1328]	+ (compound exhibited 0-25% inhibition of calcium ion influx induced by capsaicin stimulation)
Cc1cc(C)nc(NC(=O)c2ccc(-c3ncccc3Cl)cn2)c1 [Compound 1329]	+ (compound exhibited 0-25% inhibition of calcium ion influx induced by capsaicin stimulation)
O=C(Nc1ccncc1)c1ccc(-c2ncccc2Cl)cn1 [Compound 1330]	+++ (compound exhibited 50-75% inhibition of calcium ion influx induced by capsaicin stimulation)
O=C(Nc1ccc(N2CCOCC2)cc1)c1ccc(-c2ncccc2Cl)cn1 [Compound 1334]	+ (compound exhibited 0-25% inhibition of calcium ion influx induced by capsaicin stimulation)
Cc1ccnc(NC(=O)c2ccc(-c3ncccc3Cl)cn2)c1 [Compound 1335]	+ (compound exhibited 0-25% inhibition of calcium ion influx induced by capsaicin stimulation)
O=C(Nc1ccncn1)c1ccc(-c2ncccc2Cl)cn1 [Compound 1336]	++++ (compound exhibited 75% or greater inhibition of calcium ion influx induced by capsaicin stimulation)
COc1ccc(NC(=O)c2ccc(-c3ncccc3Cl)cn2)cn1 [Compound 1341]	++ (compound exhibited 25-50% inhibition of calcium ion influx induced by capsaicin stimulation)

SMILES	% Inhibition @ 1 uM
O=C(Nc1ccnc(Cl)c1)c1ccc(-c2ncccc2Cl)cn1 [Compound 1342]	+ (compound exhibited 0-25% inhibition of calcium ion influx induced by capsaicin stimulation)
Cc1cc(NC(=O)c2ccc(-c3ncccc3Cl)cn2)nc(C)n1 [Compound 1343]	+ (compound exhibited 0-25% inhibition of calcium ion influx induced by capsaicin stimulation)
O=C(Nc1ccc2ncccc2c1)c1ccc(-c2ncccc2Cl)cn1 [Compound 1344]	+ (compound exhibited 0-25% inhibition of calcium ion influx induced by capsaicin stimulation)
CCn1c2ccccc2c2cc(NC(=O)c3ccc(-c4ncccc4Cl)cn3)ccc21 [Compound 1345]	++++ (compound exhibited 75% or greater inhibition of calcium ion influx induced by capsaicin stimulation)
O=C(Nc1ccc2ccccc2c1)c1ccc(-c2ncccc2Cl)cn1 [Compound 1348]	++ (compound exhibited 25-50% inhibition of calcium ion influx induced by capsaicin stimulation)
O=C(Nc1ccc(OCc2ccccc2)cc1)c1ccc(-c2ncccc2Cl)cn1 [Compound 1349]	+ (compound exhibited 0-25% inhibition of calcium ion influx induced by capsaicin stimulation)
CCOC(=O)c1ccc(NC(=O)c2ccc(-c3ncccc3Cl)cn2)cc1 [Compound 1350]	+ (compound exhibited 0-25% inhibition of calcium ion influx induced by capsaicin stimulation)
COc1ccc(NC(=O)c2ccc(-c3ncccc3Cl)cn2)cc1O [Compound 1355]	++ (compound exhibited 25-50% inhibition of calcium ion influx induced by capsaicin stimulation)
COc1cc(NC(=O)c2ccc(-c3ncccc3Cl)cn2)cc(OC)c1OC [Compound 1356]	+ (compound exhibited 0-25% inhibition of calcium ion influx induced by capsaicin stimulation)
O=C(Nc1ccc2cn[nH]c2c1)c1ccc(-c2ncccc2Cl)cn1 [Compound 1357]	++++ (compound exhibited 75% or greater inhibition of calcium ion influx induced by capsaicin stimulation)
CCCOc1ccc(NC(=O)c2ccc(-c3ncccc3Cl)cn2)cc1 [Compound 1358]	+ (compound exhibited 0-25% inhibition of calcium ion influx induced by capsaicin stimulation)
O=C(Nc1ccc(OC(F)(F)F)cc1)c1ccc(-c2ncccc2Cl)cn1 [Compound 1360]	+ (compound exhibited 0-25% inhibition of calcium ion influx induced by capsaicin stimulation)
O=C(Nc1cccc(OC(F)(F)F)c1)c1ccc(-c2ncccc2Cl)cn1 [Compound 1361]	++ (compound exhibited 25-50% inhibition of calcium ion influx induced by capsaicin stimulation)
CC(C)Oc1cccc(NC(=O)c2ccc(-c3ncccc3Cl)cn2)c1 [Compound 1362]	+ (compound exhibited 0-25% inhibition of calcium ion influx induced by capsaicin stimulation)
O=C(Nc1ccc(F)c(F)c1)c1ccc(-c2ncccc2Cl)cn1 [Compound 1363]	++++ (compound exhibited 75% or greater inhibition of calcium ion influx induced by capsaicin stimulation)
CCOc1cccc(NC(=O)c2ccc(-c3ncccc3Cl)cn2)c1 [Compound 1364]	++++ (compound exhibited 75% or greater inhibition of calcium ion influx induced by capsaicin stimulation)
